Data published in patent EP3763715A1, “HARRINGTONINES SALTS, IN PARTICULAR RETINOATES, THEIR PROCESS OF PREPARATION AND THEIR USES IN THE TREATMENT OF LEUKEMIAS, CANCERS, AUTOIMMUNE, SKIN, ALZHEIMER'S AND INFLAMMATORY BOWEL DISEASES AND VIRAL INFECTIONS, COMBINED WITH MYELOPOIESIS STIMULATING AGENTS” (Robin, Jean-Pierre, priority 2019, dated 2021).

Key:
K562 cell line = assay: Testing on K562 leukemia cell line (MTT cytotoxicity); assay type: cell-based, human; settings: K562 cells, 72 h incubation, preliminary screening, read-out: K562 (CML) IC50
Procedure: (§1) Retinoates of harringtonines described in this invention were tested on K562 cell line which is derived from the pleural effusion of a person with chronic myelogenous leukemia (CML, bcr-abl positive) in terminal blast crises (Lozzio and Lozzio, Blood, 1975, p321). The cell line was purchased from ATCC (American Tissue Culture Collection) and grown in RPMI medium supplemented with 10% heat-inactivated fetal calf serum, 2 mmol/L glutamine, […] penicillin and […] streptomycin. All tested products were initially dissolved in 2N HCl (pH=2) (alkaloid base) or in aqueous solvent (salt) or in DMSO (retinoids), supplemented with ultrasound treatment during 1 h. Working concentrations were made by dilution in culture medium (pH 7). Cells in exponential growth phase were placed into 96-microwell plates in concentration 3x10^4/mL (total volume 200 µL/well) and incubated with drugs for 72 h at 37° C. in 5% CO2 humidified atmosphere. Following incubation, 28 µL of MTT 3-(4,5 dimethylthiazol-2-yl)-2,5 tetrazolium bromide] dye solution (Sigma, St. Louis, Mo.) was added to each well. During the following 6 h of incubation at 37° C., the purple formazan product was formed by conversion of the yellow MTT salt in the mitochondria of the viable cells. The resulting precipitate was dissolved in DMSO and the amount of converted MTT was quantified in an ELISA reader (MR 5000, Dynatech). Each product was tested in triplicate (3x8 wells). Every test contained at least one plate with HHT as control, added in the same concentration as the tested products.

HL-60 cell line = assay: Testing on HL-60 leukemia cell line (MTT cytotoxicity); assay type: cell-based, human; settings: HL-60 cells, medium with 20% fetal bovine serum, preliminary screening, read-out: HL60 (APL) IC50
Procedure: as §1
Retinoates of harringtonines described in this invention were tested on HL-60 cell line, derived from acute promyelocytic leukemia (APL) cells. HL-60 is a promyelocytic cell line derived by S.J. Collins, et al. (Proc. Natl. Acad. Sci. USA 1978 p2458). Peripheral blood leukocytes were obtained by leukopheresis from a person with APL (Gallagher R, et al. Blood 1978, p713) The cell line was purchased from ATCC (American Tissue Culture Collection) and the base growth medium was also completed with fetal bovine serum but at a final concentration of 20%, otherwise the same method than the one of example 10 was used.
Preliminary screening using this tumor cell lines are gathered in table 1.

MDA-MB-468 = assay: Testing on breast cancer cell lines, sulforhodamine B (SRB) cell viability assay; assay type: cell-based, human; settings: MDA-MB-468 breast cancer cells, preliminary screening, read-out: M DA-MB-468 (BC) IC50
Procedure: Operating Procedure were performed as described in the recent paper of Yakhni et al [Yakhni AM J CANCER RES 2019; 9(5) in press "Homoharringtonine, on approved anti-leukemia drug, suppresses triple negative breast cancer growth through a rapid reduction of anti-apoptotic protein abundance"]
The cell lines used in this study were MDA-MB-231 (ATCC® HTB-26™), MDA-MB-468 (ATCC® HTB-132™), MDA-MB-157 (ATCC® HTB-24™) and CAL-51. Those lines were chosen to represent the BRCA1/2 non-mutated TNBC transcriptomic subtypes, currently most in need of efficacious treatment due to lower sensibility of BRCA1 wild-type TNBC to the DNA-damaging chemotherapy (Masuda et al., Clin Cancer Res. 2013, p5533; Jiang et al., PLoS Med. 2016, pe1002193; Park et al. ESMO Open. 2018, pe000357). CAL-51 line represents the mesenchymal transcriptomic subtype whereas MDA-MB-157 and MDA-MB-231 represent the mesenchymal stem-like subtype (Lehmann et al. J Clin Invest. 2011, p2750). MDA-MB-468 was used as a model of aggressive, PTEN-negative TNBC, with hyperactivated EGFR signaling pathway due to EGFR amplification (Filmus et al., Biochem Biophys Res Commun. 1985, p898). MDA-MB-468 transcriptome classifies it into the basal-like 1 subtype (49). The MDA lines were purchased from the American Type Culture Collection (ATCC, Manassas, VA, USA). The CAL-51 was kindly provided by Dr Gerard Milano, from the Centre Antoine Lacassagne, Nice, France, where the line has been established (Gioanni et al., Br J Cancer 1990, p8). After initial expansion, the cell line stock vials were conserved, in liquid nitrogen, at the Biological Resource Center of Jean Perrin Comprehensive Cancer Center (biobank ID BB-0033-00075, Clermont-Ferrand, France). The MDA cell lines were cultured in the Leibovitz L-15 medium, whereas CAL-51 line was maintained in DMEM (both media from Invitrogen Life Technologies, Carlsbad, CA, USA). The media were supplemented with 10% heat-inactivated fetal bovine serum and […] gentamicin. CAL-51 line was kept at 37°C, in a humidified atmosphere with 5% CO2; the MDA lines were kept under the same conditions, however, without CO2, in a free gas exchange with atmospheric air. All cell lines were maintained in monolayer culture, in the sub-confluent status, with no more 30 passages of the cells thawed from the stock vial.
Homoharringtonine was supplied by LeukePharma Inc. (Houston, TX, USA) as water-soluble, crystalline tartaric acid salt. Initial stock solution of HHT-tartrate was prepared at 10 mM in sterile deionized water, aliquoted and kept at -80°C. For each experiment, a fresh HHT solution was prepared by dissolving the HHT stock in phosphate-buffered saline (PBS, GIBCO™, Invitrogen, Cergy-Pontoise, France).
Cell viability was assessed using the sulforhodamine B (SRB) assay (Sigma-Aldrich, St Louis, MO, USA) according to the method described by Vichai and Kirtikara (Nat Protoc. 2006, p1112). Cells were seeded in 96-well plates, at 5x10^3 or 1x10^3 cells/well (the MDA cell lines and CAL-51, respectively), left overnight to adhere and then treated with growing concentrations of HHT for 24h, 48h or 72h. After incubation with the drug, cells were washed twice with PBS and left for 72 h in the corresponding complete culture medium. Then the cells were fixed with trichloroacetic acid (final concentration 10%) at 4°C for 1 h, followed with plate washing with water five times, air drying and staining with 0.4% SRB dissolved in 1% acetic acid, at room temperature, for 30 min. The plates were subsequently washed four times with 1% acetic acid to remove unbound stain. To solubilize the protein-bound dye, 10 mM Tris base solution was added to each well. The cell viability, estimated through the present protein biomass, was determined by measuring optical density of the dye, using a spectrophotometer at wavelength of 540 nm (BMG Labtech, Ortenberg, Germany).
Preliminary screening using these tumor cell lines are gathered in table 1.

[1] = Solubility determination in water; assay type: physicochemical; settings: 25° C., semi-quantitative
Procedure: Solubility in water at 25° C. was measured semi-quantitatively at a threshold of 5 g per 100 mL. All the homoharringtonine salts described in the below examples, unless otherwise stated, are soluble at this threshold. Homoharringtonine base itself is soluble at a threshold lower than 0.1 g per mL.

Row | Molecule | IC50 (K562 cell line) [nM] | IC50 (HL-60 cell line) [nM] | IC50 (MDA-MB-468) [nM] | solubility [1] [mg/mL]
1 | CC1(C)CC=C(c2cnc3ccccc3c2)c2cc(C(=O)Nc3ccc(C(=O)O)cc3)ccc21.COC(=O)CC(O)(CCCC(C)(C)O)C(=O)O[C@@H]1C(OC)=C[C@]23CCCN2CCc2cc4c(cc2[C@H]13)OCO4 (stereo partly drawn) [Example 10, Butanedioic acid, 2-hydroxy-2-(4-hydroxy-4-methylpentyl)-, 1-[(1S,3aR,14bS)-1,5,6,8,9,14b-hexahydro-2-methoxy-4H-cyclopenta[c][1,3]dioxolo[4,5-h]pyrrolo[2,1-b][3]benzazepin-1-yl]4-methyl ester, 4-[[[5,6-Dihydro-5,5-dimethyl-8-(3-quinolinyl)-2-naphthalenyl]carbonyl]amino]benzoate] | < 50 | < 100 | < 50 | –
2 | COC(=O)CC(O)(CCCC(C)(C)O)C(=O)O[C@@H]1C(OC)=C[C@]23CCCN2CCc2cc4c(cc2[C@H]13)OCO4.O=C(O)c1ccc2cc(-c3ccc(O)c(C45CC6CC(CC(C6)C4)C5)c3)ccc2c1 (stereo partly drawn) [Example 11, Butanedioic acid, 2-hydroxy-2-(4-hydroxy-4-methylpentyl)-, 1-[(1S,3aR,14bS)-1,5,6,8,9,14b-hexahydro-2-methoxy-4H-cyclopenta[a][1,3]dioxolo[4,5-h]pyrrolo[2,1-b][3]benzazepin-1-yl]4-methyl ester, 6-[3-(1-adamantyl)-4-hydroxyphenyl]-2-naphtalenecarboxylate] | < 50 | < 100 | < 50 | –
3 | COC(=O)CC(O)(CCCC(C)(C)O)C(=O)O[C@@H]1C(OC)=C[C@]23CCCN2CCc2cc4c(cc2[C@H]13)OCO4.O=C(O)c1ccc(-c2ccc3cc(O)c(C45CC6CC(CC(C6)C4)C5)cc3c2)cc1 (stereo partly drawn) [Example 12, Butanedioic acid, 2-hydroxy-2-(4-hydroxy-4-methylpentyl)-, 1-[(1S,3aR,14bS)-1,5,6,8,9,14b-hexahydro-2-methoxy-4H-cyclopenta[a][1,3]dioxolo[4,5-h]pyrrolo[2,1-b][3]benzazepin-1-yl]4-methyl ester, 4-(6-Hydroxy-7-tricyclo[3.3.1.1^3,7]dec-1-yl-2-naphthalenyl)benzoate] | < 50 | < 100 | < 50 | –
4 | CC1(C)C(=O)C(C)(C)c2cc(C(=O)Nc3ccc(C(=O)O)cc3)ccc21.COC(=O)CC(O)(CCCC(C)(C)O)C(=O)O[C@@H]1C(OC)=C[C@]23CCCN2CCc2cc4c(cc2[C@H]13)OCO4 (stereo partly drawn) [Example 15, Butanedioic acid, 2-hydroxy-2-(4-hydroxy-4-methylpentyl)-, 1-[(1S,3aR,14bS)-1,5,6,8,9,14b-hexahydro-2-methoxy-4H-cyclopenta[a][1,3]dioxolo[4,5-h]pyrrolo[2,1-b][3]benzazepin-1-yl]4-methyl ester, 4-[[(2,3-Dihydro-1,1,3,3-tetramethyl-2-oxo-1H-inden-5-yl)carbonyl]amino]benzoate] | < 50 | < 100 | < 50 | –
5 | CC1(C)CCC(C)(C)c2cc(C(=O)Nc3ccc(C(=O)O)cc3)ccc21.COC(=O)C[C@](O)(CCCC(C)(C)O)C(=O)O[C@@H]1C(OC)=C[C@]23CCCN2CCc2cc4c(cc2[C@H]13)OCO4 [Example 23, homoharringtonine Am 580 salt] | < 50 | < 100 | < 50 | –
6 | COC(=O)C[C@](O)(CCCC(C)(C)O)C(=O)O[C@@H]1C(OC)=C[C@]23CCCN2CCc2cc4c(cc2[C@H]13)OCO4 [Homoharringtonine base, Homoharringtonine] | – | – | – | < 100
7 | OP5215 acitretinate [Example 25] | < 20 | < 50 | < 20 | –
8 | OP5215 adarotenoate [Example 28] | < 10 | < 20 | < 10 | –
9 | OP5215 bexarotenoate [Example 29] | < 10 | < 20 | < 10 | –
10 | OP5215 tamibarotenoate [Example 26] | < 10 | < 20 | < 10 | –
11 | OP5215, Am 580 salt [Example 27] | < 10 | < 20 | < 10 | –
